Where a name gives a salt, the structure may show the parent alone.
With O=C(Nc1ccc2cccc(N3CCNCC3)c2c1)c1ccccc1 as the compound, how does the melting point read?
The melting point was 141.5 to 144 °C.

With CN1CCN(c2cccc3ccc(NC(=O)C(F)(F)F)cc23)CC1 as the compound, how does the melting point read?
The melting point was 159 to 160 °C.

With CC(=O)Nc1ccc2cccc(N3CCN(C)CC3)c2c1 as the compound, how does the melting point read?
The melting point was 177 to 180 °C.

Which melting point does the source give for CN1CCN(c2cccc3ccc(N)cc23)CC1 here?
Its melting point is 157 to 159 °C.

With CN1CCN(c2cccc3ccc(Nc4ccc([N+](=O)[O-])cc4[N+](=O)[O-])cc23)CC1 as the compound, how does the melting point read?
The melting point was 153 to 154 °C.

With CN1CCC(c2cccc3ccc(N)cc23)CC1 as the compound, how does the melting point read?
The melting point was 169.5 to 171 °C.

For CN1CCCC(c2cccc3ccc(N)cc23)C1 (stereo not shown), which melting point is on record?
The melting point was 117 to 120 °C.

With CN1CCN(c2cccc3ccc(NC(=O)c4cc([N+](=O)[O-])cc([N+](=O)[O-])c4)cc23)CC1 as the compound, how does the melting point read?
The melting point was 254 to 256 °C.

With Cl.O=CNc1ccc2cccc(C[C@H]3CCCN3)c2c1 as the compound, how does the melting point read?
The melting point was 223.5 to 224 °C.

With Nc1ccc2cccc(N3CCNCC3)c2c1 as the compound, how does the melting point read?
The melting point was 184 to 186 °C.

For CN1CCCC(c2cccc3ccc(-n4cnc5ncccc54)cc23)C1 (stereo not shown) (as salt: HCl) [Example 63, 7-(Imidazolo[4,5-b]pyridin-1-yl)-1-(1-methyl-3-piperidinyl)-naphthalene], which melting point is on record?
The melting point was over 250 °C.

For CN1CCCC(c2cccc3ccc(NC(=O)c4ccccc4)cc23)C1 (stereo not shown) (as salt: HCl) [Example 64, 7-Benzamido-1-(1-methyl-3-piperidinyl)-naphthalene], which melting point is on record?
The melting point was 140 to 170 °C.

Which melting point does the source give for O=C(Nc1ccc2cccc(C[C@H]3CCCN3)c2c1)c1ccc(Cl)cc1 (as salt: HCl) [Example 71, 7-(4-Chlorobenzamido)-1-(pyrrolidin-2-(R)-ylmethyl)-naphthalene] here?
Its melting point is 230 to 231.5 °C.

For c1cc(N2CCNCC2)c2cc(-n3cnc4ncccc43)ccc2c1 (as salt: hydrochloride), which melting point is on record?
The melting point was over 250 °C.

For c1cc(N2CCNCC2)c2cc(-n3nnc4ncccc43)ccc2c1 (as salt: hydrochloride), which melting point is on record?
Its melting point is over 250 °C.

With CN1CCN(c2cccc3ccc(OCc4ccc(C(F)(F)F)cc4)cc23)CC1 (as salt: hydrochloride) [Example 51, 7-(4-Trifluoromethylbenzyloxy)-1-(4-methyl-1-piperazinyl)-naphthalene] as the compound, how does the melting point read?
Its melting point is 205 to 206 °C.

For COCCN1CCN(c2cccc3ccc(NC(=O)c4ccc(Cl)cc4)cc23)CC1 (as salt: hydrochloride) [Example 65, 7-(4-Chlorobenzamido)-1-(4-methoxyethyl-1-piperazinyl)-naphthalene], which melting point is on record?
The melting point was 134 to 148 °C.

Which melting point does the source give for COc1cccc(-c2ccc3cccc(N4CCN(C)CC4)c3c2)c1 (as salt: hydrochloride) [Example 81, 7-(3-Methoxyphenyl)-1-(4-methylpiperazin-1-yl)naphthalene] here?
Its melting point is 236 to 238 °C.

With CN1CCN(c2cccc3ccc(Nc4ncccc4N)cc23)CC1 (hydrate or solvate) [Example 29, 7-(3-Amino-2-pyridylamino)-1-(4-methyl-1-piperazinyl)-naphthalene] as the compound, how does the melting point read?
Its melting point is 198 to 200 °C.

For CN1CCN(c2cccc3ccc(NC(=O)c4ccccc4)cc23)CC1 [Example 1, 7-Benzamido-1-(4-methyl-1-piperazinyl)-naphthalene], which melting point is on record?
The melting point was 173 to 175 °C.

With CN1CCN(c2cccc3ccc(NC(=O)c4cccc([N+](=O)[O-])c4)cc23)CC1 [Example 4, 7-(3-Nitrobenzamido)-1-(4-methyl-1-piperazinyl)-naphthalene] as the compound, how does the melting point read?
Its melting point is 182 to 184 °C.

Which melting point does the source give for CN1CCN(c2cccc3ccc(NC(=O)c4cccc(Cl)c4)cc23)CC1 [Example 6, 7-(3-Chlorobenzamido)-1-(4-methyl-1-piperazinyl)-naphthalene] here?
Its melting point is 147 to 148 °C.

Which melting point does the source give for CN1CCN(c2cccc3ccc(NC(=O)c4ccc(Cl)cc4)cc23)CC1 [Example 8, 7-(4-Chlorobenzamido)-1-(4-methyl-1-piperazinyl)-naphthalene] here?
Its melting point is 174 to 175 °C.

With CN1CCN(c2cccc3ccc(NC(=O)c4cccc(C#N)c4)cc23)CC1 [Example 9, 7-(3-Cyanobenzamido)-1-(4-methyl-1-piperazinyl)-naphthalene] as the compound, how does the melting point read?
Its melting point is 220 to 222 °C.

With CN1CCN(c2cccc3ccc(NC(=O)c4ccc(O)cc4)cc23)CC1 [Example 10, 7-(4-Hydroxybenzamido)-1-(4-methyl-1-piperazinyl)-naphthalene] as the compound, how does the melting point read?
Its melting point is 156 to 160 °C.

With CN1CCN(c2cccc3ccc(NCc4cccc5ccccc45)cc23)CC1 [Example 13, 7-(1-Naphthylmethylamino)-1-(4-methyl-1-piperazinyl)-naphthalene] as the compound, how does the melting point read?
Its melting point is 140 to 141 °C.

Which melting point does the source give for CN1CCN(c2cccc3ccc(NCc4ccccc4)cc23)CC1 [Example 14, 7-(Benzylamino)-1-(4-methyl-1-piperazinyl)-naphthalene] here?
Its melting point is 115 to 117 °C.

With CCCCCC(=O)Nc1ccc2cccc(N3CCN(C)CC3)c2c1 [Example 17, 7-Hexanamido-1-(4-methyl-1-piperazinyl)-naphthalene] as the compound, how does the melting point read?
Its melting point is 144 to 146 °C.

For CN1CCN(c2cccc3ccc(NC(=O)Nc4ccccc4)cc23)CC1 [Example 19, 7-(Phenylaminocarbonylamino)-1-(4-methyl-1-piperazinyl)-naphthalene], which melting point is on record?
The melting point was 213 to 214 °C.

Which melting point does the source give for CN1CCN(c2cccc3ccc(NC(=O)OCc4ccccc4)cc23)CC1 [Example 20, 7-(Benzyloxycarbonylamino)-1-(4-methyl-1-piperazinyl)-naphthalene] here?
The melting point was 143 to 144 °C.

For CN1CCN(c2cccc3ccc(Nc4nc(Cc5ccccc5)cs4)cc23)CC1 [Example 24, 4-Benzyl-2-[-1-(4-methyl-1-piperazinyl)-7-naphthylamino]-thiazole], which melting point is on record?
The melting point was 157 to 160 °C.

For CN1CCN(c2cccc3ccc(Nc4ncccc4[N+](=O)[O-])cc23)CC1 [Example 25, 7-(3-Nitro-2-pyridinylamino)-1-(4-methyl-1-piperazinyl)-naphthalene], which melting point is on record?
The melting point was 127.5 to 129 °C.

For CN1CCN(c2cccc3ccc(Nc4ccc([N+](=O)[O-])cn4)cc23)CC1 [Example 27, 7-(5-Nitro-2-pyridylamino)-1-(4-methyl-1-piperazinyl)-naphthalene], which melting point is on record?
Its melting point is 121 to 125 °C.

With CN1CCN(c2cccc3ccc(Nc4ccccc4[N+](=O)[O-])cc23)CC1 [Example 28, 7-(2-Nitrophenylamino)-1-(4-methyl-1-piperazinyl)-naphthalene] as the compound, how does the melting point read?
The melting point was 87 to 94 °C.

Which melting point does the source give for CN1CCN(c2cccc3ccc(Nc4ncccc4NC(=O)c4ccccc4)cc23)CC1 [Example 30, 7-(3-Benzamido-2-pyridylamino)-1-(4-methyl-1-piperazinyl)-naphthalene] here?
The melting point was 205 to 207 °C.

For CC(=O)Nc1cccnc1Nc1ccc2cccc(N3CCN(C)CC3)c2c1 [Example 31, 7-(3-Acetamido-2-pyridylamino)-1-(4-methyl-1-piperazinyl)-naphthalene], which melting point is on record?
Its melting point is 110 to 114 °C (dec.).

Which melting point does the source give for CN1CCN(c2cccc3ccc(-n4cnc5ncccc54)cc23)CC1 [Example 35, 7-(Imidazolo[4,5-b]pyridin-1-yl)-1-(4-methyl-1-piperazinyl)-naphthalene] here?
Its melting point is 107 to 112 °C.

With CN1CCN(c2cccc3ccc(-n4cnc5ccccc54)cc23)CC1 [Example 37, 7-(Benzimidazol-1-yl)-1-(4-methyl-1-piperazinyl)-naphthalene] as the compound, how does the melting point read?
Its melting point is 148 to 150 °C.

With CN1CCN(c2cccc3ccc(OCc4ccc(Cl)cc4)cc23)CC1 [Example 40, 7-(4-Chlorobenzyloxy)-1-(4-methyl-1-piperazinyl)-naphthalene] as the compound, how does the melting point read?
Its melting point is 111.5 to 112 °C.

Which melting point does the source give for CNS(=O)(=O)c1cccc(-c2ccc3cccc(N4CCN(C)CC4)c3c2)c1 [Example 41, 7-(3-Methylaminosulfonylphenyl)-1-(4-methyl-1-piperazinyl)naphthalene] here?
The melting point was 147.5 to 148 °C.

With CN1CCN(c2cccc3ccc(-c4cccc(NS(C)(=O)=O)c4)cc23)CC1 [Example 42, 7-(3-Methylsulfonylaminophenyl)-1-(4-methyl-1-piperazinyl)-naphthalene] as the compound, how does the melting point read?
The melting point was 100 to 101 °C.

For CN1CCN(c2cccc3ccc(C(=O)c4ccccc4)cc23)CC1 [Example 43, 7-Benzoyl-1-(4-methyl-1-piperazinyl)naphthalene], which melting point is on record?
Its melting point is 124 to 124.5 °C.

Which melting point does the source give for CN1CCN(c2cccc3ccc(C(O)c4ccccc4)cc23)CC1 (stereo not drawn) [Example 44, 7-(α-Hydroxybenzyl)-1-(4-methyl-1-piperazinyl)-naphthalene] here?
Its melting point is 162.5 to 163 °C.

Which melting point does the source give for CN1CCN(c2cccc3ccc(C(O)(c4ccccc4)c4ccccc4)cc23)CC1 [Example 45, 7-(Diphenylhydroxymethyl)-1-(4-methyl-1-piperazinyl)-naphthalene] here?
The melting point was 217.5 to 218.5 °C.

For CN1CCN(c2cccc3ccc(OCc4ccccc4)cc23)CC1 [Example 49, 7-(Benzyloxy)-1-(4-methyl-1-piperazinyl)-naphthalene], which melting point is on record?
The melting point was 81.5 to 82.5 °C.

For CN1CCN(c2cccc3ccc(OCc4ccc(Cl)c(Cl)c4)cc23)CC1 [Example 50, 7-(3,4-Dichlorobenzyloxy)-1-(4-methyl-1-piperazinyl)-naphthalene], which melting point is on record?
Its melting point is 113 to 114 °C.

For CN1CCN(c2cccc3ccc(OC(=O)c4ccccc4)cc23)CC1 [Example 52, 7-Benzoyloxy-1-(4-methyl-1-piperazinyl)-naphthalene], which melting point is on record?
Its melting point is 82 to 82.5 °C.

For CN1CCN(c2cccc3ccc(OC(=O)c4ccc(Cl)cc4)cc23)CC1 [Example 53, 7-(4-Chlorobenzoyloxy)-1-(4-methyl-1-piperazinyl)-naphthalene], which melting point is on record?
Its melting point is 110 to 111 °C.

For CN1CCN(c2cccc3ccc(OCc4cccc(Cl)c4)cc23)CC1 [Example 54, 7-(3-Chlorobenzyloxy)-1-(4-methyl-1-piperazinyl)-naphthalene], which melting point is on record?
The melting point was 67.5 to 68 °C.

For CN1CCN(c2cccc3ccc(OS(=O)(=O)C(F)(F)F)cc23)CC1 [Example 55, 7-Trifluoromethylsulfonyloxy-1-(4-methyl-1-piperazinyl)-naphthalene], which melting point is on record?
Its melting point is 70 to 71 °C.

With CCCN1CCN(c2cccc3ccc(NC(=O)c4ccc(Cl)cc4)cc23)CC1 [Example 66, 7-(4-Chlorobenzamido)-1-(4-propyl-1-piperazinyl)-naphthalene] as the compound, how does the melting point read?
Its melting point is 130 to 132 °C.

Which melting point does the source give for CCN1CCN(c2cccc3ccc(NC(=O)c4ccc(Cl)cc4)cc23)CC1 [Example 67, 7-(4-Chlorobenzamido)-1-(4-ethyl-1-piperazinyl)-naphthalene] here?
Its melting point is 173 to 174.5 °C.

From patent US20050080090A1, “Naphthalene derivatives” (priority 1993, published 2005)
